Structures can show the parent of a compound that is named as a salt.

The values that follow come from patent US9346811B2, “6,7-dihydro-pyrazolo[1,5-a]pyrazin-4-ylamine derivatives useful as inhibitors of beta-secretase (BACE)” (JANSSEN PHARMACEUTICA NV, priority 2011, dated 2016).

The subject of assay [1] is Aβ42 produced and secreted into the medium of human neuroblastoma SKNBE2 cells. As to the kind of experiment: Cellular αlisa assay in SKNBE2 cells, Aβ42. The assay is classed as cell-based. The conditions noted are these: SKNBE2 cells expressing hAPP695, 18 hours incubation; for IC50: Homo sapiens, SKNBE2, 18 h, read-out: Cellular αlisa assay in SKNBE2 cells Aβ42 pIC50 (converted). The method, then:
(§1) Cellular αlisa Assay in SKNBE2 Cells
(§2) In two αlisa assays the levels of Aβtotal and Aβ42 produced and secreted into the medium of human neuroblastoma SKNBE2 cells are quantified. The assay is based on the human neuroblastoma SKNBE2 expressing the wild type Amyloid Precursor Protein (hAPP695). The compounds are diluted and added to these cells, incubated for 18 hours and then measurements of Aβ42 and Aβtotal are taken. Aβtotal and Aβ42 are measured by sandwich αlisa. αlisa is a sandwich assay using biotinylated antibody AbN/25 attached to streptavidin coated beads and antibody Ab4G8 or cAb42/26 conjugated acceptor beads for the detection of Aβtotal and Aβ42 respectively. In the presence of Aβtotal or Aβ42, the beads come into close proximity. The excitation of the Donor beads provokes the release of singlet oxygen molecules that triggers a cascade of energy transfer in the Acceptor beads, resulting in light emission. Light emission is measured after 1 hour incubation (excitation at […] and emission at 615 nm).
(§3) A best-fit curve is fitted by a minimum sum of squares method to the plot of % Controlmin versus compound concentration.

Assay [2] deals with Aβtotal produced and secreted into the medium of human neuroblastoma SKNBE2 cells. As to the kind of experiment: Cellular αlisa assay in SKNBE2 cells, Aβtotal. The assay is classed as cell-based. The settings on record: SKNBE2 cells expressing hAPP695, 18 hours incubation; for IC50: Homo sapiens, SKNBE2, 18 h, read-out: Cellular αlisa assay in SKNBE2 cells Aβtotal pIC50 (converted). As to the method: as §1, §2, §3

Assay [3] addresses recombinant BACE1 protein (Homo sapiens, UniProt P56817). As to the kind of experiment: Biochemical FRET based assay. The settings on record: recombinant BACE1 1 μg/ml, 120 min, pH 5.0; for IC50: read-out: Biochemical FRET based assay pIC50 (converted). An excerpt: Biochemical FRET Based Assay
This assay is a Fluorescence Resonance Energy Transfer Assay (FRET) based assay. The substrate for this assay is an APP derived 13 amino acids peptide that contains the ‘Swedish’ Lys-Met/Asn-Leu mutation of the amyloid precursor protein (APP) β-secretase cleavage site. This substrate also contains two fluorophores: (7-methoxycoumarin-4-yl)acetic acid (Mca) is a fluorescent donor with excitation wavelength at 320 nm and emission at 405 nm and 2,4-Dinitrophenyl (Dnp) is a proprietary quencher acceptor. […] Upon cleavage by BACE1, the fluorophore Mca is separated from the quenching group Dnp, restoring the full fluorescence yield of the donor. The increase in fluorescence is linearly related to the rate of proteolysis (Koike H et al. J. Biochem. 1999, 126, 235-242). Briefly in a 384-well format recombinant BACE1 protein in a final concentration of 1 μg/ml is incubated for 120 min at room temperature with 10 μm substrate in incubation buffer (40 mM Citrate buffer pH 5.0, 0.04% PEG, 4% DMSO) in the absence or presence of compound. Next the amount of proteolysis is directly measured by fluorescence measurement at T=0 and T=120 (excitation at 320 nm and emission at 405 nm).

Chain of recombinant BACE1 protein (P56817 46-501): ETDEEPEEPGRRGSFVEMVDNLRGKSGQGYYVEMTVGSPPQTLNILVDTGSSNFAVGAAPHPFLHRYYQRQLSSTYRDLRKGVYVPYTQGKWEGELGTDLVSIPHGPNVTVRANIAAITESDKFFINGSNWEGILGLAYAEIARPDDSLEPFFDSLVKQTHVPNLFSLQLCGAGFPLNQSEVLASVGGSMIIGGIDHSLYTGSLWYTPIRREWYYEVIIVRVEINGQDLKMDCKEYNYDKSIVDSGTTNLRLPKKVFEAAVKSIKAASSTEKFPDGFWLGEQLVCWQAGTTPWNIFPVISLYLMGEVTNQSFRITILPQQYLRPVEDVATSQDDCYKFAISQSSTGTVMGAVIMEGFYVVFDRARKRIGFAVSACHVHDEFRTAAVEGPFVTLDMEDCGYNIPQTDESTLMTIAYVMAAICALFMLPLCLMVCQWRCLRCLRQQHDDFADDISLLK

As for `CC1(c2cccc(NC(=O)c3ccc(Cl)cn3)c2)Cn2nccc2C(N)=N1` (racemic) [Compound 2, rac-5-chloro-pyridine-2-carboxylic acid [3-(4-amino-6-methyl-6,7-dihydro-pyrazolo[1,5-a]pyrazin-6-yl)-phenyl]-amide], the IC50 in assay [1] is 3.24 nM; in assay [2] it was 2.45 nM; in assay [3] it was 83.2 nM.

With `COc1cnc(C(=O)Nc2ccc(F)c(C3(C(F)F)Cn4nccc4C(N)=N3)c2)cn1` (single isomer, unassigned) [Compound 19, (S*)-5-methoxy-pyrazine-2-carboxylic acid [3-(4-amino-6-difluoromethyl-6,7-dihydro-pyrazolo[1,5-a]pyrazin-6-yl)-4-fluoro-phenyl]-amide], in assay [1], the “Cellular αlisa assay in SKNBE2 cells Aβ42 pIC50” value is 5.28. The “Cellular αlisa assay in SKNBE2 cells Aβtotal pIC50” value in assay [2] is given as 5.13. Besides, the IC50 in assay [3] is 9770 nM.

In the case of `C[C@@]1(c2cc(NC(=O)c3ccc(C#N)cn3)ccc2F)Cn2nc(C#N)cc2C(N)=N1` [Compound 26, (R)-5-cyano-pyridine-2-carboxylic acid [3-(4-amino-2-cyano-6-methyl-6,7-dihydro-pyrazolo[1,5-a]pyrazin-6-yl)-4-fluoro-phenyl]-amide], the IC50 in assay [1] is 1.48 nM; in assay [2], 1.45 nM; in assay [3], 49 nM.

In the case of `Cc1nc(C(=O)Nc2ccc(F)c(C3(C)Cn4nc(C#N)cc4C(N)=N3)c2)co1` (stereo not drawn) [Compound 43], the “Cellular αlisa assay in SKNBE2 cells Aβ42 pIC50” value in assay [1] is recorded as 8.72. Further, the “Cellular αlisa assay in SKNBE2 cells Aβtotal pIC50” value in assay [2] is listed as 8.70. For the same compound, the “Biochemical FRET based assay pIC50” value in assay [3] stood at 7.53.

For `CC1(c2cccc(NC(=O)c3ccc(C#N)cn3)c2)Cn2nccc2C(N)=N1` (racemic) [Compound 6, rac-5-cyano-pyridine-2-carboxylic acid [3-(4-amino-6-methyl-6,7-dihydro-pyrazolo[1,5-a]pyrazin-6-yl)-phenyl]-amide], the IC50 in assay [1] was 5.75 nM; in assay [2] it was 5.13 nM.

With `CC1(c2cccc(NC(=O)c3ncc(Cl)cc3Cl)c2)Cn2nc(C(F)(F)F)cc2C(N)=N1` (single isomer, unassigned) [Compound 12, (S*)-3,5-dichloro-pyridine-2-carboxylic acid [3-(4-amino-6-methyl-2-trifluoromethyl-6,7-dihydro-pyrazolo[1,5-a]pyrazin-6-yl)-phenyl]-amide], in assay [1], the “Cellular αlisa assay in SKNBE2 cells Aβ42 pIC50” value worked out at 5.64. Also, in assay [2], the “Cellular αlisa assay in SKNBE2 cells Aβtotal pIC50” value stood at 5.75. In addition, the IC50 in assay [3] was 8710 nM.

`Cc1nc(C(=O)Nc2ccc(F)c(C3(C)Cn4ncc(F)c4C(N)=N3)c2)c(C(F)(F)F)o1` (stereo not drawn) [Compound 35]: the “Cellular αlisa assay in SKNBE2 cells Aβ42 pIC50” value in assay [1] turned out to be 7.33. Also, the “Cellular αlisa assay in SKNBE2 cells Aβtotal pIC50” value in assay [2] is 7.30. The “Biochemical FRET based assay pIC50” value in assay [3] is 6.91.

Take `Cc1nn2c(c1F)C(N)=NC(C)(c1cc(NC(=O)c3ccn(C(F)F)n3)ccc1F)C2` (stereo not drawn) [Compound 42]: the “Cellular αlisa assay in SKNBE2 cells Aβ42 pIC50” value in assay [1] is recorded as 8.02. Moreover, the “Cellular αlisa assay in SKNBE2 cells Aβtotal pIC50” value in assay [2] was found to be 7.99. In addition, in assay [3], the “Biochemical FRET based assay pIC50” value is listed as 7.12.

With `CC1(c2cccc(NC(=O)c3ncc(Cl)cc3Cl)c2)Cn2nccc2C(N)=N1` (single isomer, unassigned) [Compound 5, (S*)-3,5-dichloro-pyridine-2-carboxylic acid [3-(4-amino-6-methyl-6,7-dihydro-pyrazolo[1,5-a]pyrazin-6-yl)-phenyl]-amide], the “Cellular αlisa assay in SKNBE2 cells Aβ42 pIC50” value in assay [1] was determined as 8.59. Moreover, the “Cellular αlisa assay in SKNBE2 cells Aβtotal pIC50” value in assay [2] is listed as 8.55. Moreover, the IC50 in assay [3] is 37.2 nM.

As to `CC1(c2cccc(NC(=O)c3ncc(Cl)cc3Cl)c2)Cn2nccc2C(N)=N1` (racemic) [Compound 3, rac-3,5-dichloro-pyridine-2-carboxylic acid [3-(4-amino-6-methyl-6,7-dihydro-pyrazolo[1,5-a]pyrazin-6-yl)-phenyl]-amide], the IC50 is 3.24 nM in assay [1], 3.39 nM in assay [2] and 46.8 nM in assay [3].

For the compound `Cc1nc(C(=O)Nc2ccc(F)c(C3(C)Cn4ncc(F)c4C(N)=N3)c2)co1` (stereo not drawn) [Compound 34], the “Cellular αlisa assay in SKNBE2 cells Aβ42 pIC50” value in assay [1] is recorded as 7.83. For the same compound, the “Cellular αlisa assay in SKNBE2 cells Aβtotal pIC50” value in assay [2] is on record as 7.78. Further, in assay [3], the “Biochemical FRET based assay pIC50” value is listed as 7.23.

On to `Cc1nn2c(c1F)C(N)=NC(C)(c1cc(NC(=O)c3ccc(F)cn3)ccc1F)C2` (racemic) [Compound 41], for which, in assay [1], the “Cellular αlisa assay in SKNBE2 cells Aβ42 pIC50” value came out at 7.69. Besides, the “Cellular αlisa assay in SKNBE2 cells Aβtotal pIC50” value in assay [2] amounted to 7.67. Further, the “Biochemical FRET based assay pIC50” value in assay [3] is 6.93.

In the case of `COc1cnc(C(=O)Nc2ccc(F)c(C3(C(F)F)Cn4nccc4C(N)=N3)c2)cn1` (single isomer, unassigned) [Compound 18, (R*)-5-methoxy-pyrazine-2-carboxylic acid [3-(4-amino-6-difluoromethyl-6,7-dihydro-pyrazolo[1,5-a]pyrazin-6-yl)-4-fluoro-phenyl]-amide], the “Cellular αlisa assay in SKNBE2 cells Aβ42 pIC50” value in assay [1] amounted to 7.52. Besides, in assay [2], the “Cellular αlisa assay in SKNBE2 cells Aβtotal pIC50” value worked out at 7.54. Moreover, the IC50 in assay [3] is 22.4 nM.

Regarding `CC1(c2cc(NC(=O)c3ncc(Cl)cc3Cl)ccc2F)Cn2nccc2C(N)=N1` (racemic) [Compound 14, rac-3,5-dichloro-pyridine-2-carboxylic acid [3-(4-amino-6-methyl-6,7-dihydro-pyrazolo[1,5-a]pyrazin-6-yl)-4-fluoro-phenyl]-amide], the IC50 is 1.35 nM in assay [1], 1.17 nM in assay [2] and 35.5 nM in assay [3].

As to `COc1cnc(C(=O)Nc2ccc(F)c(C3(C)Cn4ncc(Cl)c4C(N)=N3)c2)cn1` (stereo not drawn) [Compound 37], in assay [1], the “Cellular αlisa assay in SKNBE2 cells Aβ42 pIC50” value is 6.03. Besides, the “Cellular αlisa assay in SKNBE2 cells Aβtotal pIC50” value in assay [2] came to 6.07. In assay [3], the “Biochemical FRET based assay pIC50” value is given as 5.86.

On to `CC1(c2cccc(NC(=O)c3ccc(C#N)cn3)c2)Cn2ncc(Br)c2C(N)=N1` (racemic) [Compound 9, rac-5-cyano-pyridine-2-carboxylic acid [3-(4-amino-3-bromo-6-methyl-6,7-dihydro-pyrazolo[1,5-a]pyrazin-6-yl)-phenyl]-amide trifluorocetate salt], for which the IC50 in assay [1] was 1000 nM; in assay [2] it was 871 nM; in assay [3] it was 7940 nM.

As to `CC1(c2cccc(NC(=O)c3ncc(Cl)cc3Cl)c2)Cn2nccc2C(N)=N1` (single isomer, unassigned) [Compound 4, (R*)-3,5-dichloro-pyridine-2-carboxylic acid [3-(4-amino-6-methyl-6,7-dihydro-pyrazolo[1,5-a]pyrazin-6-yl)-phenyl]-amide], the “Cellular αlisa assay in SKNBE2 cells Aβ42 pIC50” value in assay [1] amounted to 5.84. In addition, the “Cellular αlisa assay in SKNBE2 cells Aβtotal pIC50” value in assay [2] amounted to 5.84. Further, in assay [3], the IC50 was 21400 nM.

Turning to `Cc1nc(C(=O)Nc2ccc(F)c(C3(C)Cn4ncc(F)c4C(N)=N3)c2)c(C)o1` (stereo not drawn) [Compound 36], the “Cellular αlisa assay in SKNBE2 cells Aβ42 pIC50” value in assay [1] is given as 7.56. Moreover, the “Cellular αlisa assay in SKNBE2 cells Aβtotal pIC50” value in assay [2] is on record as 7.53. The “Biochemical FRET based assay pIC50” value in assay [3] was found to be 7.04.

In the case of `CC1(c2cccc(NC(=O)c3ccc(C#N)cn3)c2)Cn2nccc2C(N)=N1` (single isomer, unassigned) [Compound 8, (S*)-5-cyano-pyridine-2-carboxylic acid [3-(4-amino-6-methyl-6,7-dihydro-pyrazolo[1,5-a]pyrazin-6-yl)-phenyl]-amide], in assay [1], the “Cellular αlisa assay in SKNBE2 cells Aβ42 pIC50” value is reported as 6.13. Also, the “Cellular αlisa assay in SKNBE2 cells Aβtotal pIC50” value in assay [2] was determined as 6.13.

`C[C@@]1(c2cc(NC(=O)c3cnn(C(F)F)c3)ccc2F)Cn2nc(C#N)cc2C(N)=N1` [Compound 25, (R)-1-difluoromethyl-1H-pyrazole-4-carboxylic acid [3-(4-amino-2-cyano-6-methyl-6,7-dihydro-pyrazolo[1,5-a]pyrazin-6-yl)-4-fluoro-phenyl]-amide]: the results for the IC50 in assay [1] and in assay [2] were 1.32 nM and 1.35 nM, respectively.
